Results published in patent US20250296937A1, “CYCLIC BISBENZYL TETRAHYDROISOQUINOLINE COMPOUND, AND PREPARATION METHOD THEREFOR AND USE THEREOF” (Shanghai Institute of Materia Medica, Chinesse Academy of …, priority 2021, published 2025).
“Also recorded” adds a separate entry of the source.

What was measured:
[1] = target: novel coronavirus envelope protein (2-E) ion channel (Severe acute respiratory syndrome coronavirus 2, UniProt P0DTC4); assay: Novel coronavirus envelope protein (2-E) ion channel activity test, planar lipid bilayer (BLM); assay type: biochemical, SARS-CoV-2; details: room temperature, 1, 10, 50, 100 μM, read-out: Inhibition against 2-E ion channels IC50
[2] = Cytotoxicity test on Vero E6 cells (CCK8); assay type: cell-based; details: African green monkey; Vero E6 cells, CCK8 kit
Description: (§1) In this embodiment, the half toxicity concentration of each embodiment on Vero E6 cells was determined by CCK8 kit analysis (CC50).

Vero E6 cells = assay: Cytotoxicity test on Vero E6 cells (CCK8); assay type: cell-based; details: Vero E6 cells
Description: as §1

Raw 264.7 cells = assay: Cell viability in LPS-induced inflammation model of Raw 264.7 cells (CCK-8); assay type: cell-based; details: 1 μg/ml LPS, 1 μM compound, 16 hours
Description: In this example, the effect of the compounds of the present invention on the inflammation level of the LPS-induced inflammation model of Raw 264.7 cells was analyzed by cell viability in combination with inflammatory factors; cell viability was analyzed by CCK-8 assay; and mRNA expression levels of inflammation-related indicators were detected by a real-time quantitative PCR (Q-PCR) method. Raw 264.7 cells were purchased from ATCC; CCK-8 kit was purchased from Meilunbio, item no. MA0218-3; LPS was purchased from Sigma, item no. L2630.
(§2) Experimental methods: first, 8000 cells/well Raw 264.7 cells were placed in 96-well plates and incubated overnight. On the second day, 0.1% DMSO was added to the control cells, 1 μg/ml LPS as well as 0.1% DMSO was added to the model group, 1 μg/ml LPS as well as 1 μM of the compounds (oxyacanthine hydrochloride (oxy), 1, 2, tetrandrine (tet), 3, 4, 6, 58) was added to the treatment group, and the 96-well plates were sterilized and incubated in a constant temperature incubator for 16 hours. Finally, the viability of the cells was detected using the CCK-8 kit.

[3] = test system: inflammatory factor mRNA in Raw 264.7 cells; assay: mRNA levels of inflammatory indicators in TNF-α-induced inflammation model of Raw264.7 cells (Q-PCR); assay type: cell-based; details: 10 ng/ml TNF-α, 1 μM compound, 16 hours
Description: In this embodiment, the effect of compounds on TNF-α-induced inflammation levels in Raw 264.7 cells was analyzed by cell viability combined with inflammatory factor expression levels; cell viability was analyzed by CCK-8 assay; and mRNA expression levels of inflammation-associated indicators were detected by real-time quantitative PCR (Q-PCR) method. Raw 264.7 cells were purchased from ATCC, CCK-8 kit was purchased from Meilunbio, item number MA0218-3, TNF-α was purchased from Merck, item no. GF314.
as §2, with “5*10^4” for “8000”, “12-well” for “96-well”, “10 ng/ml TNF-α” for “1 μg/ml LPS”, “Cellular mRNA was extracted by lysis using Trizol (Yisheng, 10606ES60) and detected by real-time quantitative PCR after reverse transcription,” for “Finally,”, “primers are” for “viability of”, “same as in Table 2.” for “cells was detected using the CCK-8 kit.”

[4] = test system: A549 lung epithelial cells; assay: Anti TGF-β1-induced fibrosis assay in A549 lung epithelial cells (microscopy, Western Blot); assay type: cell-based; details: 10 ng/ml TGF-β1, 1 μM compound
Description: Cell injury was observed by microscopic observation; cell viability was analyzed by CCK-8 assay; and protein expression levels of fibrosis-related indicators were detected by Western Blot method. A549 cells were purchased from ATCC; CCK-8 kit was purchased from Meilunbio, item number MA0218-3; TGF-β1 was purchased from MCE, item number HY-P70543; primary antibodies: Collagen was purchased from ARG21965, item no. arigobio; α-smooth muscle actin was purchased from CST, item no. mAb #19245; VIMENTN was purchased from CST, item no. mAb #5741; GAPDH was purchased from Yeasen, item no. 30201ES20.
Experimental methods: first, 8000 cells/well A549 cells were placed in 96-well plates and incubated overnight. On the second day, 0.1% DMSO was added to the control cells, 10 ng/ml TGF-β1 as well as 0.1% DMSO was added to the model group, 10 ng/ml TGF-β1 as well as 1 μM of the compounds (oxy, 1, 2, tet, 3, 4, 6, 58) was added to the treatment group, and the 96-well plates were sterilized and incubated in a constant temperature incubator for 72 hours. Finally, cell injury and growth were observed using a microscope; the viability of the cells was detected by CCK-8 kit.

[5] = test system: carbon tetrachloride-induced acute liver fibrosis; assay: Carbon tetrachloride-induced acute liver fibrosis in mice; assay type: in vivo, C57BL/6 mice; details: for liver fibrosis indicators (Collagen1, α-SMA) by WB assay: 30 mg/kg orally once a day for 6 days, CCl4 0.6 ml/kg i.p. D1, D3, D5; for effect on CCl4-induced acute liver fibrosis in mice: oral administration, 30 mg/kg
Description: In this example, the effect of the compounds of the present invention on the carbon tetrachloride-induced acute liver fibrosis model was analyzed by tissue observation, fibrosis indicators, HE and Sirius red staining; the injury of mice was determined by body weight testing and tissue bright-field photographing; the protein expression levels of fibrosis-related indicators were detected by WesternBlot assay; and the fibrosis progression was analyzed by HE and Sirius red staining. C57BL/6 mice were purchased from SLAC; CCl4 was purchased from Sinopharm Chemical Reagent Co, Ltd, item no. 10006464; olive oil was purchased from Sinopharm, item no. 69018028; primary antibody: Collagen was purchased from ARG21965, item no. arigobio; α-smooth muscle actin was purchased from CST, item no. mAb #19245; VIMENTN was purchased from CST, item no. mAb #5741; GAPDH was purchased from Yeasen, item no. mAb #30201ES20.
Solution preparation: CCl4 was diluted with olive oil (1:9, vol:vol) and the compounds were configured with 85% saline+5% DMSO+5% HS-15+5% PEG400 as solvents toa concentration of 3 mg/ml.
Construction of fibrosis model mice: […] C57 mice were randomly divided into […] after 1 week of adaptive feeding: blank group, model group, and 2 treatment groups; with 6 experimental animals in the blank group and 8 experimental animals in each of the remaining 3 groups. Except for the blank group, the remaining three groups were injected intraperitoneally with CCl4 (0.6 ml/kg) in D1, D3, and D5, respectively, and the blank group was injected intraperitoneally with olive oil at the same time. At the same time of modeling, mice in the treatment group were continuously administered by gavage for 6 days, once a day, 2 h after the injection of CC14, and the treatment group was administered orally 30 mg/kg of Compound 2 or Compound 4; mice in the blank group and the model group were given an equal amount of saline by intraperitoneal injection, and the mice were euthanized 24 h after the last administration of CCl4 for test. A portion of the liver tissue was cut to appropriate size and placed in 4% PFA, −80° C. refrigerator for subsequent detection of pathological changes in tissue sample slices, and WB assay, respectively.
Detection methods: 1. After autopsy, liver in situ photos were taken; 2. Liver tissue was retained and lysed using RIPA to extract proteins for WB detection; 3. HE staining as well as Sirius red detection were performed when liver tissue sections were fixed.

Sequence of novel coronavirus envelope protein (2-E) ion channel (P0DTC4 whole entry, looked up): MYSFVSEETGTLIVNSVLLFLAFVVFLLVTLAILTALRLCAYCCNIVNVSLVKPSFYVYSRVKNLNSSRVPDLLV

SMILES: CCCCNC(=O)Oc1ccc2cc1Oc1ccc(cc1)C[C@H]1c3c(cc(OC)c(OC)c3Oc3cc4c(cc3OC)CCN(C)[C@@H]4C2)CCN1C [Compound 2]
- IC50 [1]: < 10 µM
- IC50 [2]: 30 to 50 µM
- cytotoxicity on Vero E6 cells compared with oxyacanthine hydrochloride (Vero E6 cells): weaker cytotoxicity than oxyacanthine hydrochloride
- cell viability in LPS-induced inflammation model (Raw 264.7 cells): did not affect cell viability
- inhibition of inflammatory factors (mRNA) in TNF-α-induced inflammation model [3]: significantly inhibited inflammatory factors; also recorded: significant inhibition
- alleviation of TGF-β1-induced fibrosis in A549 lung epithelial cells (Collagen1, α-SMA by WB) [4]: alleviated; also recorded: partially alleviate fibrosis
- liver fibrosis indicators (Collagen1, α-SMA) by WB assay [5]: down-regulated
- effect on CCl4-induced acute liver fibrosis in mice [5]: alleviated; also recorded: mitigative effect

SMILES: COc1cc2c3cc1Oc1c(OC)c(OC)cc4c1[C@H](Cc1ccc(cc1)Oc1cc(ccc1C(N)=O)C[C@H]3N(C)CC2)N(C)CC4 [Compound 4]
- IC50 [1]: < 1 µM
- IC50 [2]: > 50 µM
- cytotoxicity on Vero E6 cells compared with oxyacanthine hydrochloride (Vero E6 cells): weaker cytotoxicity than oxyacanthine hydrochloride
- cell viability in LPS-induced inflammation model (Raw 264.7 cells): did not affect cell viability
- inhibition of inflammatory factors (mRNA) in TNF-α-induced inflammation model [3]: significantly inhibited inflammatory factors; also recorded: significant inhibition
- alleviation of TGF-β1-induced fibrosis in A549 lung epithelial cells (Collagen1, α-SMA by WB) [4]: alleviated; also recorded: partially alleviate fibrosis
- liver fibrosis indicators (Collagen1, α-SMA) by WB assay [5]: down-regulated
- effect on CCl4-induced acute liver fibrosis in mice [5]: alleviated; also recorded: mitigative effect
